Reference: PubChem BioAssay (NCI)
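These data come from cells grown in 96-well plates and exposed to compound for 48 hours at five concentrations. Here, GI50 denotes the concentration required for 50% inhibition of growth. TGI: total growth inhibition.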

Assays:
Assay in all cases: DTP human tumour cell line panel, 48 h
NCI-H522 lung = test system: NCI-H522 lung
A549 NSCLC = test system: A549 NSCLC
HS 578T breast = test system: HS 578T breast
SK-MEL-5 melanoma = test system: SK-MEL-5 melanoma
T-47D breast = test system: T-47D breast
OVCAR-3 ovarian = test system: OVCAR-3 ovarian
NCI/ADR-RES ovarian = test system: NCI/ADR-RES ovarian
TK-10 renal = test system: TK-10 renal
A498 renal = test system: A498 renal
MDA-MB-231 breast = test system: MDA-MB-231 breast
NCI-H23 lung = test system: NCI-H23 lung
UO-31 renal = test system: UO-31 renal
SN12C renal = test system: SN12C renal
U251 CNS = test system: U251 CNS
NCI-H460 lung = test system: NCI-H460 lung
HL-60(TB) leukemia = test system: HL-60(TB) leukemia
UACC-257 melanoma = test system: UACC-257 melanoma
SNB-19 CNS = test system: SNB-19 CNS
DU-145 prostate = test system: DU-145 prostate
CCRF-CEM leukemia = test system: CCRF-CEM leukemia
PC-3 prostate = test system: PC-3 prostate
HCT-15 colon = test system: HCT-15 colon
SK-MEL-28 melanoma = test system: SK-MEL-28 melanoma
SR leukemia = test system: SR leukemia
SF-268 CNS = test system: SF-268 CNS
CAKI-1 renal = test system: CAKI-1 renal
HOP-62 NSCLC = test system: HOP-62 NSCLC
OVCAR-4 ovarian = test system: OVCAR-4 ovarian
MOLT-4 leukemia = test system: MOLT-4 leukemia
SF-295 CNS = test system: SF-295 CNS
BT-549 breast = test system: BT-549 breast
786-0 renal = test system: 786-0 renal
KM12 colon = test system: KM12 colon
NCI-H226 lung = test system: NCI-H226 lung
IGROV1 ovarian = test system: IGROV1 ovarian
EKVX NSCLC = test system: EKVX NSCLC
HT29 colon = test system: HT29 colon
RXF 393 renal = test system: RXF 393 renal
SNB-75 CNS = test system: SNB-75 CNS
SF-539 CNS = test system: SF-539 CNS
SW-620 colon = test system: SW-620 colon
MDA-MB-435 = test system: MDA-MB-435
OVCAR-5 ovarian = test system: OVCAR-5 ovarian
M14 melanoma = test system: M14 melanoma
MCF7 breast = test system: MCF7 breast
MALME-3M melanoma = test system: MALME-3M melanoma
LOX IMVI melanoma = test system: LOX IMVI melanoma
ACHN renal = test system: ACHN renal
HOP-92 NSCLC = test system: HOP-92 NSCLC
K-562 leukemia = test system: K-562 leukemia
RPMI-8226 leukemia = test system: RPMI-8226 leukemia
HCT-116 colon = test system: HCT-116 colon
COLO 205 colon = test system: COLO 205 colon
SK-OV-3 ovarian = test system: SK-OV-3 ovarian
UACC-62 melanoma = test system: UACC-62 melanoma
HCC-2998 colon = test system: HCC-2998 colon
SK-MEL-2 melanoma = test system: SK-MEL-2 melanoma

## Nc1cc2ccccc2c(O)c1O
NCI-H522 lung
  GI50: 1.97 µM
  TGI: 3.94 µM
A549 NSCLC
  GI50: 20.5 µM
  TGI: 41.4 µM
HS 578T breast
  GI50: 5.7 µM
  TGI: 96.2 µM
SK-MEL-5 melanoma
  GI50: 15.1 µM
  TGI: 29.3 µM
T-47D breast
  GI50: 2.71 µM
  TGI: 7.69 µM
OVCAR-3 ovarian
  GI50: 1.74 µM
  TGI: 3.52 µM
NCI/ADR-RES ovarian
  GI50: 2.37 µM
  TGI: 6.21 µM
TK-10 renal
  GI50: 17.9 µM
  TGI: 32.2 µM
A498 renal
  GI50: 16.1 µM
  TGI: 30.5 µM
MDA-MB-231 breast
  GI50: 1.96 µM
  TGI: 5.22 µM
NCI-H23 lung
  GI50: 3.5 µM
  TGI: 17.9 µM
UO-31 renal
  GI50: 2.53 µM
  TGI: 10.3 µM
SN12C renal
  GI50: 2.13 µM
  TGI: 4.78 µM
U251 CNS
  GI50: 1.91 µM
  TGI: 3.48 µM
NCI-H460 lung
  GI50: 13 µM
  TGI: 32.1 µM
HL-60(TB) leukemia
  GI50: 2.08 µM
  TGI: 5.77 µM
UACC-257 melanoma
  GI50: 5.31 µM
  TGI: 18.1 µM
SNB-19 CNS
  GI50: 15.6 µM
  TGI: 31.9 µM
DU-145 prostate
  GI50: 13.4 µM
  TGI: 27.4 µM
CCRF-CEM leukemia
  GI50: 3 µM
  TGI: 7.85 µM
PC-3 prostate
  GI50: 1.73 µM
  TGI: 3.91 µM
HCT-15 colon
  GI50: 1.9 µM
  TGI: 4.08 µM
SK-MEL-28 melanoma
  GI50: 12.8 µM
  TGI: 27.4 µM
SR leukemia
  GI50: 3.16 µM
  TGI: 13.2 µM
SF-268 CNS
  GI50: 1.78 µM
  TGI: 3.59 µM
CAKI-1 renal
  GI50: 1.67 µM
  TGI: 3.1 µM
HOP-62 NSCLC
  GI50: 15.7 µM
  TGI: 30.1 µM
OVCAR-4 ovarian
  GI50: 1.53 µM
  TGI: 2.88 µM
MOLT-4 leukemia
  GI50: 2.49 µM
  TGI: 6.27 µM
SF-295 CNS
  GI50: 15.7 µM
  TGI: 29.8 µM
BT-549 breast
  GI50: 13.3 µM
  TGI: 26.1 µM
786-0 renal
  GI50: 1.85 µM
  TGI: 3.28 µM
KM12 colon
  GI50: 5.24 µM
  TGI: 18.9 µM
NCI-H226 lung
  GI50: 2.36 µM
  TGI: 5.84 µM
IGROV1 ovarian
  GI50: 3.98 µM
  TGI: 16.3 µM
EKVX NSCLC
  GI50: 10.7 µM
  TGI: 22.7 µM
HT29 colon
  GI50: 19.6 µM
  TGI: 41.8 µM
RXF 393 renal
  GI50: 1.83 µM
  TGI: 3.25 µM
SNB-75 CNS
  GI50: 1.94 µM
  TGI: 18.4 µM
SF-539 CNS
  GI50: 1.79 µM
  TGI: 3.32 µM
SW-620 colon
  GI50: 2.08 µM
  TGI: 4.33 µM
MDA-MB-435
  GI50: 1.83 µM
  TGI: 3.38 µM
OVCAR-5 ovarian
  GI50: 3.13 µM
  TGI: 13.5 µM
M14 melanoma
  GI50: 3.35 µM
  TGI: 12.3 µM
MCF7 breast
  GI50: 1.88 µM
  TGI: 4.32 µM
MALME-3M melanoma
  GI50: 1.87 µM
  TGI: 3.83 µM
LOX IMVI melanoma
  GI50: 1.59 µM
  TGI: 2.94 µM
ACHN renal
  GI50: 1.69 µM
  TGI: 3.54 µM
HOP-92 NSCLC
  GI50: 1.96 µM
  TGI: 5.75 µM
K-562 leukemia
  GI50: 2.59 µM
  TGI: 8.11 µM
RPMI-8226 leukemia
  GI50: 2.72 µM
  TGI: 7.13 µM
HCT-116 colon
  GI50: 2.07 µM
  TGI: 4.5 µM
COLO 205 colon
  GI50: 15 µM
  TGI: 31.5 µM
SK-OV-3 ovarian
  GI50: 15.4 µM
  TGI: 29 µM
UACC-62 melanoma
  GI50: 5.65 µM
  TGI: 18.7 µM
HCC-2998 colon
  GI50: 12.8 µM
  TGI: 27.1 µM
SK-MEL-2 melanoma
  GI50: 14.4 µM
  TGI: 33.1 µM
